Values of other authors in publication PMC11944884, “Bioactive Secondary Metabolites of Two Chinese Edible Boletes, Phlebopus portentosus and Butyriboletus roseoflavus” (Molecules, 2025).

Test system: head domain of HA
Conditions: molecular docking, ref [56]; cited from earlier work

CC[C@H](CC[C@@H](C)[C@H]1CC[C@H]2[C@@H]3CC=C4C[C@@H](O)CC[C@]4(C)[C@H]3CC[C@]12C)C(C)C [β-sitosterol]
binding affinity to the head domain of HA: highest binding affinity
